24 compounds from US20230061083A1, “KRAS G12C INHIBITOR COMPOUND AND USE THEREOF” (Evopoint Biosciences Co., Ltd., priority 2019, published 2023) can be followed below.

The test system of data set [1] is ERK phosphorylation in H358 cells. In words: In-cell western blot assay for ERK phosphorylation in H358 cells. It counts as cell-based. The conditions noted are these: Homo sapiens, NCI-H358, 10000 nM to 0.051 nM, 3-fold dilution, read-out: H358 p-ERK IC50. How it is done:
In-Cell Western Blot Assay for ERK Phosphorylation in H358 Cells
H358 cells were thawed and pre-cultured for 3 days to be in a good state (RPMI 1640+10% FBS+1% P/S). The cells were plated on to a 384-well plate, and a test compound, positive control compounds (AMG510 and isomers thereof) and a negative control were added. The compound was at concentrations from 10000 nM to 0.051 nM. 3-fold dilution was performed. The mixture was well mixed and incubated at 37° C. and 5% CO2. The cells were washed with PBS and suspended in methanol. After another washing with PBS, a blocking buffer was added. After 1 h of blocking at room temperature, a primary antibody mixture (rabbit anti pERK, mouse anti GAPDH) was added, followed by overnight incubation at 4° C. The cells were washed 3 times with PBST, and a secondary antibody mixture (goat anti rabbit 800CW and goat anti mouse 680RD) was added, followed by incubation at room temperature in the dark. The 384-well plate was reversed and centrifuged at 1000 rpm for 1 min, and read on an Odyssey CLx fluorescence imaging system for fluorescence signal values, which was corrected using DMSO and ARS1620. The specific calculation is as follows:
Relative Signal=Signal Value(total channel 800)/Signal Value(total channel 700)
Relative pERK=(Sample−Ave_L)/(Ave_H−Ave_L).
The IC50 values of the compounds were calculated using a four-parameter fitting algorithm, specifically as follows:
Y=Bottom+(Top−Bottom)/(1+10^((Log IC50−X)×HillSlope))

The target of data set [2] is KRAS G12C protein (GDP-KRAS-4B-G12C) (Homo sapiens, UniProt P01116, G12C). In words: Assay for binding rate to KRAS G12C protein by LC-MS method. The conditions noted are these: 3 uM compound; for Binding rate to KRAS G12C protein (LC-MS POC, %) 3 uM/5 min: 5 min incubation at room temperature; for Binding rate to KRAS G12C protein (LC-MS POC, %) 3 uM/30 min: 30 min incubation at room temperature. How it is done: Assay for Binding Rate to KRAS G12C Protein by LC-MS Method
A 10 mM stock solution of a test compound in DMSO was prepared. […] An equal volume of GDP buffer (20 mM Hepes, pH 7.5, 50 mM NaCl, 0.5 mM MgCl2, 10 mM EDTA, 2 mM DTT, GDP) was added to prepare KRASG12C protein loaded with GDP.
After incubation at room temperature for 5 min and 30 min, the reaction was terminated by addition of 5 μL of 5% formic acid. After being centrifuged at 15,000 rpm for 10 min, the mixture was subjected to LC-MS analysis and data analysis.
The percent binding of a test compound to KRASG12C protein was calculated as: Percent binding to KRAS G12C (%)=peak height of conjugate of test compound and KRAS G12C protein/[peak height of conjugate of test compound and KRAS G12C protein+peak height of free KRAS G12C protein] x 100.

The nature of data set [3]: Plasma protein binding (PPB), RED plate dialysis, rat plasma. Type of data set: in vitro ADME. The conditions noted are these: 37° C., read-out: PPB (% free state) R. As to the method:
(§1) Human (H), Rat (R) and Mouse (M) Plasma Protein Binding (PPB)
(§2) A test compound and a positive control were each mixed with blank plasma to a final concentration of 1 μM. The mixture was added to a RED plate plasma sample chamber, followed by addition of a dialysis buffer in the buffer chamber. The sample was prepared in triplicate for each compound. The chambers were sealed, and the plate was incubated at 37° C. with shaking at 60 rpm for 5 h. After incubation, the samples were transferred out of the plasma chamber and the buffer chamber and treated as shown in Table 5. After centrifugation at 5594 g for 15 min, the supernatant was collected and analyzed by LC/MS/MS.
(§3) The compound concentration in each sample was expressed in terms of the ratio between peak areas (ratio of peak area of compound to peak area of internal standard) by mass spectrometry analysis, and the plasma protein binding was calculated according to the following formulas.
(§4) % free state=(buffer chamber peak area ratio/plasma chamber peak area ratio)×100%
(§5) % bound state=100%−% free state

A short description of data set [4]: Plasma protein binding (PPB), RED plate dialysis, human plasma. It counts as in vitro ADME. The conditions noted are these: 1 μM, 37° C., 5 h, read-out: PPB (% free state) H. How it is done: as §1, §2, §3, §4, §5
Data set [5] in a line: Plasma protein binding (PPB), RED plate dialysis, mouse plasma. It counts as in vitro ADME. The conditions noted are these: 37° C., read-out: PPB (% free state) M. As to the method: as §1, §2, §3, §4, §5
The test system of another data set is plasma proteins. In words: Plasma protein binding (PPB), RED plate dialysis, human plasma. It counts as in vitro ADME. As to the method:
as §1, §2, §3, §4, §5

pIC50: −log10 of the molar value.

Take `C=CC(=O)N1CCN(c2nc(=O)n(-c3c(C(C)C)ncnc3C(C)C)c3c2cc(F)c(-c2ccccc2O)[n+]3[O-])[C@@H](C)C1` [SZ-014111A/B]: in data set [1], the negative-log IC50 (pIC50) was 7.51.
As for `C=CC(=O)N1CCN(c2nc(=O)n(-c3c(C(C)C)ncnc3C(C)C)c3c2cc(F)c(-c2cc(F)ccc2O)[n+]3[O-])[C@@H](C)C1` [SZ-014044], in data set [2], the “Binding rate to KRAS G12C protein (LC-MS POC, %) 3 uM/5 min” value (“Binding rate … (LC-MS POC, %) 3 uM/5 min” below) turned out to be 84.1% and the “Binding rate to KRAS G12C protein (LC-MS POC, %) 3 uM/30 min” value (from here on “Binding rate … (LC-MS POC, %) 3 uM/30 min”) is recorded as 97.2%. The pIC50 in data set [1] was 6.84.
For the compound `C=CC(=O)N1CCN(c2nc(=O)n(-c3c(C)ccnc3CC)c3c2cc(F)c(-c2c(F)cccc2F)[n+]3[O-])[C@@H](C)C1` [SZ-014131], the pIC50 in data set [1] is 5.68.
On the same count and under the same terms, with `C=CC(=O)N1CCN(c2nc(=O)n(-c3c(C)ccnc3C(C)C)c3c2cc(F)c(-c2c(F)cccc2F)[n+]3[O-])[C@@H](C)C1` [SZ-014077A/B] the figure was 6.72.
With `C=C(F)C(=O)N1CCN(c2nc(=O)n(-c3c(C(C)C)ncnc3C(C)C)c3nc(-c4c(F)cccc4F)c(F)cc23)[C@@H](C)C1` [SZ-014137, reference compound], the fraction unbound at 5 h, 1 μM in data set [3] stood at 0.114; in data set [4] it was 0.076; in data set [5], 0.005. For the same compound, in data set [1], the negative-log IC50 (pIC50) is 5.45.
`C=CC(=O)N1CCN(c2nc(=O)n(-c3c(C(C)C)ncnc3C(C)C)c3c2cc(F)c(-c2c(F)ccc(F)c2O)[n+]3[O-])[C@@H](C)C1` [SZ-014062AB]: in data set [1], the negative logarithm of the IC50 (pIC50) was 6.68.
The same measure, in the same setting: with `C=CC(=O)N1CCN(c2nc(=O)n(-c3c(C(C)C)ncnc3C(C)C)c3c2cc(F)c(-c2cccc4ccccc24)[n+]3[O-])[C@@H](C)C1` [SZ-014013A/B] the figure was 7.44.
`C=CC(=O)N1CCN(c2nc(=O)n(-c3c(C(C)C)cccc3C(C)C)c3nc(-c4ccccc4)c(F)cc23)[C@@H](C)C1` [SZ-014142, reference compound]: the fraction unbound at 5 h, 1 μM in data set [3] amounted to 0.008; in data set [4] it was 0.002; in data set [5], 0.047. Further, in data set [1], the pIC50 was 6.53.
The like results for `C=CC(=O)N1CCN(c2nc(=O)n(-c3c(C(C)C)ncnc3C(C)C)c3nc(-c4c(F)cccc4F)c(F)cc23)[C@@H](C)C1` [SZ-014138, reference compound] were, in that order, 0.203, 0.129, 0.011 and 7.47.
For `C=CC(=O)N1CCN(c2nc(=O)n(-c3c(C)ccnc3C(C)C)c3nc(-c4c(O)cccc4F)c(F)cc23)[C@@H](C)C1` [SZ-014004A, reference compound], the fraction unbound at 5 h, 1 μM stood at 0.145 in data set [3], 0.068 in data set [4] and 0.112 in data set [5]. The pIC50 in data set [1] was 7.92.
Turning to `C=CC(=O)N1CCN(c2nc(=O)n(-c3c(C)ccnc3C(C)C)c3c2cc(F)c(-c2c(O)cccc2F)[n+]3[O-])[C@@H](C)C1` [SZ-014089A/B], the pIC50 in data set [1] was 6.84.
On to `C=CC(=O)N1CCN(c2nc(=O)n(-c3c(CC)ncnc3CC)c3c2cc(F)c(-c2c(F)cccc2F)[n+]3[O-])[C@@H](C)C1` [SZ-014119], for which, in data set [2], the “Binding rate … (LC-MS POC, %) 3 uM/5 min” value was found to be 20.8% and the “Binding rate … (LC-MS POC, %) 3 uM/30 min” value is on record as 79.2%. The negative logarithm of the IC50 (pIC50) in data set [1] is 6.16.
Take `C=CC(=O)N1CCN(c2nc(=O)n(-c3c(C(C)C)ncnc3C(C)C)c3nc(-c4ccccc4)c(F)cc23)[C@@H](C)C1` [SZ-014141, reference compound]: the fraction unbound at 5 h, 1 μM in data set [3] amounted to 0.127; in data set [4], 0.04; in data set [5], 0.008. Moreover, the pIC50 in data set [1] is 6.77.
For the compound `C=CC(=O)N1CCN(c2nc(=O)n(-c3c(C)ccnc3C(C)C)c3c2cc(F)c(-c2ccccc2F)[n+]3[O-])[C@@H](C)C1` [SZ-014011A/B], in data set [2], the “Binding rate … (LC-MS POC, %) 3 uM/5 min” value is recorded as 37.8% and the “Binding rate … (LC-MS POC, %) 3 uM/30 min” value was 75.5%. For the same compound, the pIC50 in data set [1] was 6.39.
The like results for `C=CC(=O)N1CCN(c2nc(=O)n(-c3c(C)ccnc3C(C)C)c3c2cc(F)c(-c2ccccc2O)[n+]3[O-])[C@@H](C)C1` [SZ-014010A/B] were, in that order, 47.7%, 84.9% and 6.36.
With `C=CC(=O)N1CCN(c2nc(=O)n(-c3c(C(C)C)ncnc3C(C)C)c3c2cc(Cl)c(-c2ccccc2F)[n+]3[O-])[C@@H](C)C1` [SZ-014108A/B], the negative-log IC50 (pIC50) in data set [1] was 8.03.
As for `C=CC(=O)N1CCN(c2nc(=O)n(-c3c(C(C)C)cccc3C(C)C)c3c2cc(F)c(-c2ccccc2)[n+]3[O-])[C@@H](C)C1` [SZ-014130], the fraction unbound at 5 h, 1 μM in data set [3] was determined as 0.188; in data set [4], 0.074; in data set [5] it was 0.039. Further, the pIC50 in data set [1] is 6.86. The “molar concentration not bound to plasma proteins, times higher than reference compound SZ-014142” value in the data set on plasma proteins (versus SZ-014142) is “no less than 30 times”.
As to `C=CC(=O)N1CCN(c2nc(=O)n(-c3c(C(C)C)ncnc3C(C)C)c3c2cc(F)c(-c2c(F)cccc2Cl)[n+]3[O-])[C@@H](C)C1` [SZ-014082A/B], the negative logarithm of the IC50 (pIC50) in data set [1] is 7.22.
Consider `C=CC(=O)N1CCN(c2nc(=O)n(-c3c(C(C)C)cccc3C(C)C)c3nc(-c4c(F)cccc4F)c(F)cc23)[C@@H](C)C1` [SZ-014139, reference compound], for which the results for the fraction unbound at 5 h, 1 μM in data set [3], in data set [4] and in data set [5] were 0.022, 0.015 and 0.007, respectively. Further, the pIC50 in data set [1] is 7.09.
With `[2H]c1c([2H])c([2H])c(-c2c(F)cc3c(N4CCN(C(=O)C=C)C[C@@H]4C)nc(=O)n(-c4c(C(C)C)ncnc4C(C)C)c3[n+]2[O-])c(O)c1[2H]` [SZ-014051A/B], in data set [1], the pIC50 was 7.36.
Consider `C=CC(=O)N1CCN(c2nc(=O)n(-c3c(C(C)C)ncnc3C(C)C)c3c2cc(F)c(-c2ccccc2)[n+]3[O-])[C@@H](C)C1` [SZ-014129], for which the fraction unbound at 5 h, 1 μM was 0.517 in data set [3], 0.455 in data set [4] and 0.336 in data set [5]. The pIC50 in data set [1] was 7.05. The “molar concentration not bound to plasma proteins, times higher than reference compound SZ-014141” value in the data set with plasma proteins (versus SZ-014141) is on record as “no less than 10 times”.
Take `C=CC(=O)N1CCN(c2nc(=O)n(-c3c(C(C)C)ncnc3C(C)C)c3c2cc(Cl)c(-c2ccccc2O)[n+]3[O-])[C@@H](C)C1` [SZ-014031A]: the negative logarithm of the IC50 (pIC50) in data set [1] is 7.94.
On to `C=CC(=O)N1CCN(c2nc(=O)n(-c3c(C(C)C)cccc3C(C)C)c3c2cc(Cl)c(-c2c(O)cccc2F)[n+]3[O-])[C@@H](C)C1` [SZ-014116AB], for which the pIC50 in data set [1] was 8.55.
On to `C=CC(=O)N1CCN(c2nc(=O)n(-c3c(C(C)C)ncnc3C(C)C)c3c2cc(F)c(-c2cccc(F)c2O)[n+]3[O-])[C@@H](C)C1` [SZ-014043], for which, in data set [2], the “Binding rate … (LC-MS POC, %) 3 uM/5 min” value is listed as 58.5% and the “Binding rate … (LC-MS POC, %) 3 uM/30 min” value was found to be 90.0%. Moreover, in data set [1], the pIC50 is 6.31.
